Data on 22 molecules can be found in patent US9351955B2, “Compounds and pharmaceutical compositions thereof for the treatment of cystic fibrosis” (Galapagos NV, priority 2013, dated 2016).

One assay has as its target T1, CFTR G551D mutant (Homo sapiens, UniProt P13569, G551D).
T1 construct: expressed in transfected cells; host or cells: HEK293 (reverse transfection with plasmids)
In words: YFP-halide influx assay for the CFTR-G551D mutation (HEK293 cells). Particulars: HEK293 cells expressing CFTR G551D and YFP reporter; forskolin 10.67 μM; read-out: EC50 measured by YFP-halide influx assay for the CFTR-G551D. The assay is classed as cell-based. From the text:
6.3. YFP-Halide Influx Assay for the CFTR-G551D Mutation
The YFP halide influx assay measures the functionality of the cystic fibrosis Transmembrane Conductance regulator (CFTR) channels. The assay is used to evaluate the capacity of compounds to increase the channel opening of existing mutant CFTR channels in the membrane. It makes use of the observation that the yellow fluorescent protein (YFP) variant YFP H148Q, I152L, F47L has its fluorescence substantially quenched by halide ions like Cl^− and I^−. (Galietta et al., 2001)
For this purpose, HEK293-cells are seeded in 96 well plates. During seeding, the cells are reverse-transfected with plasmid vectors that direct the expression of the CFTR G551D mutant and of the YFP reporter. Cells are incubated at 37° C., 5% CO2 for 24 hours so as to allow for sufficient expression of the CFTR protein.
The I^−-induced quenching of fluorescence is recorded immediately after injection of I^− for 7 seconds. The capacity of a compound to increase the channel opening is directly correlated with the decrease in fluorescence, and is expressed as (1−(fluorescence after 7 seconds (F)/fluorescence before injection (F0))) and an EC50 can be derived from a (1−F/F0) vs compound concentration plot.

A further assay addresses T2, CFTR ΔF508 mutant (Homo sapiens, UniProt P13569, DEL508-508).
T2 construct: expressed in transfected cells; host or cells: CFBE41o- (adenoviral transduction)
In words: YFP-halide influx assay for the CFTR-ΔF508 mutation (384 well, CFBE41o- cells, FDSS/μCell). Type of assay: cell-based. Conditions: forskolin 10.67 μM, fluorescence after 36 seconds, read-out: EC50 measured by YFP-halide influx assay for the CFTR-ΔF508. From the text:
6.2. YFP-Halide Influx Assay for the CFTR-ΔF508 Mutation
The YFP halide influx assay measures the functionality of the cystic fibrosis Transmembrane Conductance regulator (CFTR) channels in the cystic fibrosis bronchial epithelium cell line CFBE41o-. The assay is used to evaluate the capacity of compounds to increase the open probability of existing CFTR channels in the membrane. It makes use of the observation that the yellow fluorescent protein (YFP) variant YFP H148Q, I152L has its fluorescence substantially quenched by halide ions like Cl— and I— (Galietta et al., 2001; Nagai et al., 2002).
For this purpose, CFBE410-cells are seeded in 384 well plates (3000 CFBE cells/well). One day after seeding, the CFBE cells are transduced with adenoviral vectors that direct the expression of the CFTR ΔF508 mutant and of the YFP reporter. Cells are incubated at 27° C., 5% CO2 for 24 hours so as to allow for the proper folding and migration to the membrane of the CFTR channel or treated with a CFTR modulator during 24 h at 37° C.
The I— induced quenching of fluorescence is recorded […] immediately after injection of I— for 2 min on an FDSS/μCell (Hamamatsu). The capacity of a compound to increase the channel opening is directly correlated with the decrease in fluorescence, and is expressed as (1−(fluorescence after 36 seconds (F)/fluorescence before injection (F0))) and an EC50 can be derived from a (1−F/F0) vs compound concentration plot.

T2 sequence (P13569 with tags, fused parts or gaps DEL508-508): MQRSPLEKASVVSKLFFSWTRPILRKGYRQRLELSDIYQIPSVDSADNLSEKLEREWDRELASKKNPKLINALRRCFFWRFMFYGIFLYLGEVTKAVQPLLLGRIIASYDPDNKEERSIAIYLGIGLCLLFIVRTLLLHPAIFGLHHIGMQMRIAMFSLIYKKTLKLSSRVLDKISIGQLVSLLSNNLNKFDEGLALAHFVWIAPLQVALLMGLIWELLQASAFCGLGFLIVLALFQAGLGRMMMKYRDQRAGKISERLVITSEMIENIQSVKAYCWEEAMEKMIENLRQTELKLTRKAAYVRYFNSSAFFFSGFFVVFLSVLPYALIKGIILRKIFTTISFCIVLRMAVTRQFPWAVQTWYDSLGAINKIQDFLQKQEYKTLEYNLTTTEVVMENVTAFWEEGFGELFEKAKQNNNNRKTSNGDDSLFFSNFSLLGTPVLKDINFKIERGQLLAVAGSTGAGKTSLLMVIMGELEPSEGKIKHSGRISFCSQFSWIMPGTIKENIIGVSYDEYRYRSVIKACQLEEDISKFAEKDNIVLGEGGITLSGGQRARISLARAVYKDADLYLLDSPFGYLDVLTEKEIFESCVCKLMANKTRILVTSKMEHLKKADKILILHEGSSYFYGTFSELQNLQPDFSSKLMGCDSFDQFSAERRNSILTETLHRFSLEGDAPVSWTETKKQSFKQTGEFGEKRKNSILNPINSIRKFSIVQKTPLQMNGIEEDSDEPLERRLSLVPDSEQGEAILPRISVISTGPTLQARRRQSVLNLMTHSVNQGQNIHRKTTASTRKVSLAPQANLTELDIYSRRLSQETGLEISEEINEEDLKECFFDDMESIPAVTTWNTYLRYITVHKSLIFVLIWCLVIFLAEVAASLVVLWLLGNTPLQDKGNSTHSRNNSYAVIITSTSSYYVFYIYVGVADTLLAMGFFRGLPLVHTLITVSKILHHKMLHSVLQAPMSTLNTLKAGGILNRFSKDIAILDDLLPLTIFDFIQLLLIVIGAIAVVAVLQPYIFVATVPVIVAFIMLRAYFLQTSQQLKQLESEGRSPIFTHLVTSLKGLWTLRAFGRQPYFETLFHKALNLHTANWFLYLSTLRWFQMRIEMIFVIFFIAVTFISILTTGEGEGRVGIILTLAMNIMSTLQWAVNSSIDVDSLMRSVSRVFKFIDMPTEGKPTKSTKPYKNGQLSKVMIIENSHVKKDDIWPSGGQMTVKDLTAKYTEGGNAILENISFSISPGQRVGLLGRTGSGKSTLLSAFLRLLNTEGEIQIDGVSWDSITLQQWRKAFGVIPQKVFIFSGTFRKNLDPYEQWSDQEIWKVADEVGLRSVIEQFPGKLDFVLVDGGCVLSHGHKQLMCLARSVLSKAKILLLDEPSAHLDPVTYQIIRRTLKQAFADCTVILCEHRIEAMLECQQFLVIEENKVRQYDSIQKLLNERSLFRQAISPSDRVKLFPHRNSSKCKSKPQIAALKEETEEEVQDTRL
T1 sequence (P13569 whole entry G551D): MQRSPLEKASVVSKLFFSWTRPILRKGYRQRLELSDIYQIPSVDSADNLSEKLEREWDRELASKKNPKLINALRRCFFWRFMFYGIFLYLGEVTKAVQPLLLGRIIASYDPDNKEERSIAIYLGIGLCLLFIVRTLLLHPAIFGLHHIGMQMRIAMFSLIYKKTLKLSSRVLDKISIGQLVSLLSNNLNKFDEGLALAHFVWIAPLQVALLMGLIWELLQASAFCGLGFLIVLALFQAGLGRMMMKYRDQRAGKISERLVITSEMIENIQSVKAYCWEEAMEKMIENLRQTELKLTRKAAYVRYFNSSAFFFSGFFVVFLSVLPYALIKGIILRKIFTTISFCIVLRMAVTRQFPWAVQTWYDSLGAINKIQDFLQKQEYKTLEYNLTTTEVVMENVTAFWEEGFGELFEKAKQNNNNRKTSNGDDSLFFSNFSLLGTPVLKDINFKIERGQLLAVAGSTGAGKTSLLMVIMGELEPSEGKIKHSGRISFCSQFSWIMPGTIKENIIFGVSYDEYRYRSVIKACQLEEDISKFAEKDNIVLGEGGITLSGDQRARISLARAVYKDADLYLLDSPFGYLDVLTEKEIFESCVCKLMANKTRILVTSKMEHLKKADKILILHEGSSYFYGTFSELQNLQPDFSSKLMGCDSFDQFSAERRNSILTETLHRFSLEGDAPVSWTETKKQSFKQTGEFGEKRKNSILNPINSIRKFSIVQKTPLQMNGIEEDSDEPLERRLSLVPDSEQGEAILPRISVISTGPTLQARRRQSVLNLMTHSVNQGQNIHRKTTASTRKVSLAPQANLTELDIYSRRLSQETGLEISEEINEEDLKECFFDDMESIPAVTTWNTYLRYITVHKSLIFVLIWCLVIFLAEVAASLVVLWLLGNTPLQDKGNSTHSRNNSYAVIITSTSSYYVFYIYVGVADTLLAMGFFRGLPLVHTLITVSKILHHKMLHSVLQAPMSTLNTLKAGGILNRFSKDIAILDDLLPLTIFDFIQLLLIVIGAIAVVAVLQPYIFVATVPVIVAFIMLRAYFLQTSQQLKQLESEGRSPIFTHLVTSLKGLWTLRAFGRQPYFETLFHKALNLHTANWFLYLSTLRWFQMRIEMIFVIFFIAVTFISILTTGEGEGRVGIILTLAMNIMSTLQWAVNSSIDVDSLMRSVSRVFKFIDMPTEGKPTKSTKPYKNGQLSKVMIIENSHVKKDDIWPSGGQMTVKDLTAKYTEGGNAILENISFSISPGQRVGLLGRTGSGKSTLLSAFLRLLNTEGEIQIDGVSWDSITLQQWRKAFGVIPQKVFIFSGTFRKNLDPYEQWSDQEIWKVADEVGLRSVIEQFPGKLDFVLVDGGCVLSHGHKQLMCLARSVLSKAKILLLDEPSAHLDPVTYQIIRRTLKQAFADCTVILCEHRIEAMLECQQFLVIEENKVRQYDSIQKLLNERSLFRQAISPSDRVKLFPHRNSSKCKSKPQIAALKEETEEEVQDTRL

Consider `Cn1cc(C(=O)Nc2sc3c(c2C(N)=O)CC(C)(C)OC3(C)C)c(C(F)F)n1` [Compound 117, N-(3-carbamoyl-5,5,7,7-tetramethyl-4H-thieno[2,3-c]pyran-2-yl)-3-(difluoromethyl)-1-methyl-pyrazole-4-carboxamide], for which the results for the EC50 on CFTR G551D mutant and on CFTR ΔF508 mutant were 6660 nM and 239 nM, respectively.

For `CC1(C)Cc2c(sc(NC(=O)c3n[nH]cc3C#N)c2C(N)=O)C(C)(C)O1` [Compound 73, N-(3-carbamoyl-5,5,7,7-tetramethyl-4H-thieno[2,3-c]pyran-2-yl)-4-cyano-1H-pyrazole-3-carboxamide], the EC50 (commonly the concentration at which the effect is half-maximal) turned out to be 570 nM at CFTR G551D mutant and 20.8 nM on CFTR ΔF508 mutant.

For the molecule `CC(C)C(CO)C(=O)Nc1sc2c(c1C(N)=O)CC(C)(C)OC2(C)C` (centres unmarked) [Compound 74, 2-[[2-(hydroxymethyl)-3-methyl-butanoyl]amino]-5,5,7,7-tetramethyl-4H-thieno[2,3-c]pyran-3-carboxamide], the results for the concentration giving a half-maximal response (EC50) on CFTR G551D mutant and on CFTR ΔF508 mutant were 3330 nM and 82.6 nM, respectively.

Take `CC1(C)Cc2c(sc(NC(=O)c3n[nH]cc3C3COCCO3)c2C(N)=O)C(C)(C)O1` (single isomer, unassigned) [Compound 111, N-(3-carbamoyl-5,5,7,7-tetramethyl-4H-thieno[2,3-c]pyran-2-yl)-4-[1,4-dioxan-2-yl]-1H-pyrazole-3-carboxamide]: the EC50 came to 3100 nM on CFTR G551D mutant and 23.9 nM on CFTR ΔF508 mutant.

On to `CC1(C)Cc2c(sc(NC(=O)CC(O)C(F)(F)F)c2C(N)=O)C(C)(C)O1` (centres unmarked) [Compound 69, 5,5,7,7-tetramethyl-2-[(4,4,4-trifluoro-3-hydroxy-butanoyl)amino]-4H-thieno[2,3-c]pyran-3-carboxamide], for which the EC50 on CFTR G551D mutant amounted to 3330 nM; on CFTR ΔF508 mutant, 34.2 nM.

As to `CC(O)C1(C(=O)Nc2sc3c(c2C(N)=O)CC(C)(C)OC3(C)C)CC1` (centres unmarked) [Compound 59, 2-[[1-(1-hydroxyethyl)cyclopropanecarbonyl]amino]-5,5,7,7-tetramethyl-4H-thieno[2,3-c]pyran-3-carboxamide], the EC50 on CFTR G551D mutant amounted to 3330 nM; at CFTR ΔF508 mutant, 8.74 nM.

Consider `CC1(C)Cc2c(sc(NC(=O)CO)c2C(N)=O)C(C)(C)O1` [Compound 66, 2-[(2-hydroxyacetyl)amino]-5,5,7,7-tetramethyl-4H-thieno[2,3-c]pyran-3-carboxamide], for which the results for the EC50 at CFTR G551D mutant and at CFTR ΔF508 mutant were 3330 nM and 84 nM, respectively.

`CC1(C)Cc2c(sc(NC(=O)C3CC(F)(F)C3)c2C(N)=O)C(C)(C)O1` [Compound 47, 2-[(3,3-difluorocyclobutanecarbonyl)amino]-5,5,7,7-tetramethyl-4H-thieno[2,3-c]pyran-3-carboxamide]: the results for the EC50 at CFTR G551D mutant and at CFTR ΔF508 mutant were 4710 nM and 118 nM, respectively.

`CCC(O)C(=O)Nc1sc2c(c1C(N)=O)CC(C)(C)OC2(C)C` (centres unmarked) [Compound 53, 2-(2-hydroxybutanoylamino)-5,5,7,7-tetramethyl-4H-thieno[2,3-c]pyran-3-carboxamide]: the EC50 is 3330 nM at CFTR G551D mutant and 9.91 nM at CFTR ΔF508 mutant.

Take `COC/C=C/c1c[nH]nc1C(=O)Nc1sc2c(c1C(N)=O)CC(C)(C)OC2(C)C` [Compound 63, N-(3-carbamoyl-5,5,7,7-tetramethyl-4H-thieno[2,3-c]pyran-2-yl)-4-[(E)-3-methoxyprop-1-enyl]-1H-pyrazole-3-carboxamide]: the results for the EC50 at CFTR G551D mutant and at CFTR ΔF508 mutant were 1190 nM and 66.3 nM, respectively.

As to `CC1(C)Cc2c(sc(NC(=O)c3cc(C(C)(C)O)[nH]n3)c2C(N)=O)C(C)(C)O1` [Compound 64, N-(3-carbamoyl-5,5,7,7-tetramethyl-4H-thieno[2,3-c]pyran-2-yl)-5-(1-hydroxy-1-methyl-ethyl)-1H-pyrazole-3-carboxamide], the concentration giving a half-maximal response (EC50) stood at 2900 nM on CFTR G551D mutant and 167 nM at CFTR ΔF508 mutant.

`Cc1nc(C(=O)Nc2sc3c(c2C(N)=O)CC(C)(C)OC3(C)C)co1` [Compound 125, N-(3-carbamoyl-5,5,7,7-tetramethyl-4H-thieno[2,3-c]pyran-2-yl)-2-methyl-oxazole-4-carboxamide]: the EC50 at CFTR G551D mutant amounted to 3330 nM; on CFTR ΔF508 mutant, 194 nM.

Take `CC1(C)Cc2c(sc(NC(=O)C(CO)CC3CC3)c2C(N)=O)C(C)(C)O1` (centres unmarked) [Compound 84, 2-[[2-(cyclopropylmethyl)-3-hydroxy-propanoyl]amino]-5,5,7,7-tetramethyl-4H-thieno[2,3-c]pyran-3-carboxamide]: the 50% effective concentration (EC50) on CFTR G551D mutant was 3330 nM; on CFTR ΔF508 mutant, 25.4 nM.

For the molecule `CC1(C)Cc2c(sc(NC(=O)c3ccccc3OC(F)F)c2C(N)=O)C(C)(C)O1` [Compound 113, 2-[[2-(difluoromethoxy)benzoyl]amino]-5,5,7,7-tetramethyl-4H-thieno[2,3-c]pyran-3-carboxamide], the EC50 was determined as 2790 nM at CFTR G551D mutant and 77.5 nM on CFTR ΔF508 mutant.

In the case of `CC1(C)Cc2c(sc(NC(=O)c3cncs3)c2C(N)=O)C(C)(C)O1` [Compound 134, N-(3-carbamoyl-5,5,7,7-tetramethyl-4H-thieno[2,3-c]pyran-2-yl)thiazole-5-carboxamide], the concentration giving a half-maximal response (EC50) on CFTR G551D mutant is 2020 nM; on CFTR ΔF508 mutant, 78.6 nM.

With `CC1(C)Cc2c(sc(NC(=O)C(C)(O)C(C)(C)C)c2C(N)=O)C(C)(C)O1` (centres unmarked) [Compound 81, 2-[(2-hydroxy-2,3,3-trimethyl-butanoyl)amino]-5,5,7,7-tetramethyl-4H-thieno[2,3-c]pyran-3-carboxamide], the figures for the concentration giving a half-maximal response (EC50) on CFTR G551D mutant and on CFTR ΔF508 mutant were 6660 nM and 3.23 nM, respectively.

For the molecule `CC1(C)Cc2c(sc(NC(=O)c3ccnn3C(F)F)c2C(N)=O)C(C)(C)O1` [Compound 115, N-(3-carbamoyl-5,5,7,7-tetramethyl-4H-thieno[2,3-c]pyran-2-yl)-2-(difluoromethyl)pyrazole-3-carboxamide], the 50% effective concentration (EC50) at CFTR G551D mutant is 586 nM; at CFTR ΔF508 mutant, 62.1 nM.

Take `CC(C)C(O)CC(=O)Nc1sc2c(c1C(N)=O)CC(C)(C)OC2(C)C` (centres unmarked) [Compound 67, 2-[(3-hydroxy-4-methyl-pentanoyl)amino]-5,5,7,7-tetramethyl-4H-thieno[2,3-c]pyran-3-carboxamide]: the EC50 at CFTR G551D mutant was found to be 3330 nM; at CFTR ΔF508 mutant, 42.7 nM.

Take `CC1(C)Cc2c(sc(NC(=O)c3ccccc3C(F)F)c2C(N)=O)C(C)(C)O1` [Compound 123, 2-[[2-(difluoromethyl)benzoyl]amino]-5,5,7,7-tetramethyl-4H-thieno[2,3-c]pyran-3-carboxamide]: the results for the EC50 at CFTR G551D mutant and at CFTR ΔF508 mutant were 825 nM and 87.9 nM, respectively.

Consider `CC1(C)Cc2c(sc(NC(=O)C3(C)CC(F)(F)C3)c2C(N)=O)C(C)(C)O1` [Compound 124, 2-[(3,3-difluoro-1-methyl-cyclobutanecarbonyl)amino]-5,5,7,7-tetramethyl-4H-thieno[2,3-c]pyran-3-carboxamide], for which the results for the EC50 at CFTR G551D mutant and at CFTR ΔF508 mutant were 685 nM and 40.6 nM, respectively.

In the case of `Cc1cnc(C(=O)Nc2sc3c(c2C(N)=O)CC(C)(C)OC3(C)C)cn1` [Compound 141, N-(3-carbamoyl-5,5,7,7-tetramethyl-4H-thieno[2,3-c]pyran-2-yl)-5-methyl-pyrazine-2-carboxamide], the concentration for a half-maximal effect (EC50) came to 1620 nM on CFTR G551D mutant and 99.5 nM on CFTR ΔF508 mutant.

Take `COCCOc1c[nH]nc1C(=O)Nc1sc2c(c1C(N)=O)CC(C)(C)OC2(C)C` [Compound 100, N-(3-carbamoyl-5,5,7,7-tetramethyl-4H-thieno[2,3-c]pyran-2-yl)-4-(2-methoxyethoxy)-1H-pyrazole-3-carboxamide]: the figures for the concentration for a half-maximal effect (EC50) at CFTR G551D mutant and at CFTR ΔF508 mutant were 2860 nM and 190 nM, respectively.
